Key:
[1] = system: Plasma of cynomolgus monkey; experiment: plasma protein binding rate test, equilibrium dialysis (monkey); type: in vitro ADME; conditions: 1 µM, 37°C, 6 hours
Protocol: (§1) Protein binding rates of the compound of the present invention in plasma of rat, monkey and human were determined by an equilibrium dialysis method. Tested compounds of the present invention were the compounds in Examples 6 and 8.
(§2) 3.1 A dry dialysis membrane was rinsed with ultrapure water for 2-3 times, and then soaked in a phosphate buffer for 1 hour for later use. Polytetrafluoroethylene module was soaked in 20% ethanol for 30 minutes, and then surface moisture was dried with dust-free paper for later use. The pretreated dialysis membrane was assembled into a dialysis plate according to the product specification, and one side (receptor compartment) of an osmotic membrane in each dialysis well was added with 100 µL of receptor fluid (100 mM phosphate buffer solution plus 0.002% Tween 80).
(§3) 3.2 The plasma was put into a centrifuge tube, a working solution of a tested substance was added into the plasma, wherein a final concentration was 1 µM, and the mixture was turned upside down and mixed evenly (this step was carried out in ice bath). 20 µL of drug-containing plasma each was taken, and was respectively transferred to a 96-well sample plate according to two parts in parallel, and stored in a refrigerator at -20°C as a T0 sample.
(§4) 3.3 Another 100 µL of the above drug-containing plasma was transferred to the other side (sample compartment) of the membrane in the dialysis device according to two parts in parallel, and incubated under vibration at a constant temperature of 37°C for 6 hours. […]
(§5) A plasma protein binding rate and a recovery rate of the compound in plasma were calculated by the following formulas: dissociation percentage (%) = CB /CA; [formula] plasma protein binding rate (fb%) = 1−dissociation percentage (%); [formula] recovery rate (%) = (CB+CA)/CT0 [formula] wherein CB was a concentration of the compound in the receptor fluid after equilibrium dialysis; CA was a concentration of the compound in the drug-containing plasma after equilibrium dialysis; and CT0 was an initial concentration of the compound in plasma.

[2] = system: Plasma of SD rat; experiment: plasma protein binding rate test, equilibrium dialysis (rat); type: in vitro ADME; conditions: 1 µM, 37°C, 6 hours
Protocol: as §1, §2, §3, §4, §5

[3] = PK properties in SD rats with different concentrations of alkyl glycoside (0.05% and 5% DDM); type: in vivo; conditions: for Tmax: rat, in vivo; for Tmax(DDM 0.05%)/ Tmax(DDM 0%): 0.05% DDM vs without DDM; for Tmax(DDM 5%)/ Tmax(DDM 0%): 5% DDM vs without DDM
Description: During preparation of a test sample in the Test Example 7, drug solution groups with 0.05% and 5% dodecyl-β-D-maltosides (DDM) were established and prepared in parallel, so as to compare and observe changes of PK properties in rats administered with the drug solution groups with two different concentrations of dodecyl-β-D-maltosides (DDM).

[4] = stability test in liver microsomes (human); type: in vitro ADME; conditions: Human liver microsomes, 60 min
Protocol: The stability of the compound of the present invention in liver microsomes of rat, monkey and human was determined. Tested compounds of the present invention were the compounds in Examples 6 and 8 , and a control drug was Zavegepant.
3.2 An appropriate amount of liver microsome solution was transferred into a 1 mL 96-deep-well plate, added with a tested drug liquid (or a probe substrate solution), and pre-incubated in a thermal mixer at 37°C for 5 minutes. Two parts of mixed solutions were taken out from the system and added with 1×PBS to replace NADPH, and the mixed solutions were taken out at 0 and 60 minutes respectively, and added with methanol (containing an internal standard) to terminate the reaction. In the remaining mixed system, each well was added with NADPH to start the reaction. In the tested substance group, mixed solutions were taken out from the system at 0, 5, 15, 30, 45 and 60 minutes, and in the control group, mixed solutions were taken out from the system at 0, 30 and 60 minutes, and the mixed solutions were added methanol (containing an internal standard) to terminate the reaction. All samples of the terminated reaction were mixed evenly and centrifuged in a centrifuge at 3800 rpm for 15 minutes, and the supernatant was taken for LC-MS/MS analysis.
A peak area was determined by an extracted ion chromatogram. A slope value k was determined by linear regression of a remaining percentage of a parent drug relative to a natural logarithm of an incubation time curve. According to the slope, in-vitro half-life periods (t1/2) were respectively calculated, and in-vitro intrinsic clearance rates (CLint, represented by µL/min/mg protein) were calculated. Calculation formulas were as follows: t1/2 = ln2/k = 0.693/k; and CLint = 0.693/t1/2 /liver microsome protein concentration [formula]

[5] = system: Plasma of human; experiment: plasma protein binding rate test, equilibrium dialysis (human); type: in vitro ADME; conditions: 1 µM, 37°C, 6 hours
Protocol: as §1, §2, §3, §4, §5

[6] = intranasal, 0.05% alkyl glycoside vs without
[7] = intranasal, 5% alkyl glycoside vs without

Row | Compound | fb (%) [1] [%] | fb (%) [2] [%] | Tmax ([3]; Sprague-Dawley, inhaled or intranasal, 0.05% alkyl glycoside) [min] | Tmax ([3]; Sprague-Dawley, inhaled or intranasal, 5% alkyl glycoside) [min] | Tmax ([3]; Sprague-Dawley, inhaled or intranasal, without alkyl glycoside) [min] | Tmax(DDM 0.05%)/ Tmax(DDM 0%) ([3]; intranasal) [%] | Tmax shortened by [3, 6] [%] | Tmax(DDM 5%)/ Tmax(DDM 0%) ([3]; intranasal) [%] | Tmax shortened by [3, 7] [%] | % remaining (60 min) [4] [%] | fb (%) [5] [%] | Tmax ([3]; intranasal, 0.05% alkyl glycoside) [min] | Tmax ([3]; intranasal, 5% alkyl glycoside) [min] | Tmax ([3]; intranasal, without alkyl glycoside) [min]
1 | Cc1cc(C[C@@H](NC(=O)N2CCC(c3cc4c([nH]c3=O)SCC4)CC2)C(=O)N2CCN(C3CCN(C)CC3)CC2)cc2cn[nH]c12 [Example 8, (R)-N-(3-(7-methyl-1H-indazole-5-yl)-1-(4-(1-methylpiperidine-4-yl)piperazine-1-yl)-1-oxopropan-2-yl)-4-(6-oxo-2,3,6,7-tetrahydrothieno[2,3-b]pyridine-5-yl)piperidine-1-formamide] | 47.7 | 69.4 | 10 | 4.98 | 12 | 79.9 | 20 | 39.7 | 60 | 85.8 | 64.1 |  |  | 
2 | Cc1cc(C[C@@H](NC(=O)N2CCC(c3cc4c([nH]c3=O)SCCC4)CC2)C(=O)N2CCN(C3CCN(C)CC3)CC2)cc2cn[nH]c12 [Example 6, (R)-N-(3-(7-methyl-1H-indazole-5-yl)-1-(4-(1-methylpiperidine-4-yl)piperazine-1-yl)-1-oxopropan-2-yl)-4-(7-oxo-3,4,7,8-tetrahydro-2H-thiopyrano[2,3-b]pyridine-6-yl)piperidine-1-formamide] | 61.3 | 90.0 |  |  |  | 25.0 | 75 | 8.3 | 91.7 | 131 | 76.7 | 15 | 4.98 | 60
